Test results taken from US10292991B2, “Small molecule therapeutic compounds that reduce the incidence of intracerebral hemorrhage and brain microhemorrhages” (St. Michaels Hospital, priority 2016, dated 2019).

Tests used:
[1] = system: ICH induced by anti-β3 integrin serum in neonatal mice; assay: Anti-β3 integrin mouse model of intracerebral hemorrhage; type: in vivo, β3+/− mice (neonates)
Source text: An anti-β3 integrin model of intracerebral hemorrhage (ICH) was generated according to our previously reported methods (Yougbare I, Lang S, Yang H et al. Maternal anti-platelet beta3 integrins impair angiogenesis and cause intracranial hemorrhage. J Clin Invest 2015; 125:1545-1556). Briefly, serum containing anti-β3 antibodies was generated by immunizing β3−/− female mice with gel-filtered wild type platelets via tail-vein injections twice a week. To detect anti-β3 antibody, blood was collected from the saphenous vein of immunized female mice and left to clot. […]
For the integrin ICH model, brains were taken out of the skull, cut at the mid-coronal position and assessed in a binary manner for whether or not there was any evidence of ICH. […]
Brains were scanned using 7T Burker MRI with 16-channel solenoid coils. […] Following the reconstruction of images and applying image distortion correction algorithms, all brains were processed and analyzed for total volume of brain and total volume of hemorrhage. Quantification was done using percentage of bleeding (normalized to each brain size). […] Lastly, quantification was done in a blinded fashion. All quantifications and 3D reconstructions were performed using a combination of Display and Amira processing software.

[2] = system: Cdh5 - exon2 morpholino-induced hemorrhage in zebrafish; assay: Cdh5 (VE-cadherin) morpholino-induced hemorrhage in zebrafish, rescue by drugs; type: in vivo, zebrafish (Danio rerio); conditions: result in words, no EC50
Method: Danieau buffer (58 mM NaCl, 0.7 mM KCl, 0.4 mM MgSO4, 0.6 mM Ca(NO3)2, 5.0 mM HEPES, pH 7.6) was used to dilute the MO solutions to 0.2 mM final concentration. Individual wells were placed on a 1.0% agarose plate, in which the embryos were positioned. Afterwards, the MO solution was injected through the cell yolk into embryos of 1 to 4 cell-stage. The injected quantities varied from 0.5 to 15 ng.
Panels A & B: Stable EC junctions are maintained by a Cdc42-dependent and VE-cadherin-mediated cell-cell adhesion. VE cadherins are found on the surfaces of EC cell-cell junctions. VE-cadherins are associated with β- and α-catenins at their cytoplasmic domains, which connect them to the actin-based cytoskeleton (blue circles). Cdc42 belongs to the Rho-family of small guanosine triphosphatases (GTPases), which are the main regulators of VE-cadherin-based cell-cell adhesion. The functions of hmgcrb, βPix, and pak2a in regulating junctional stability in zebrafish are shown. HNGCR mediated GGPP biosynthesis regulates Cdc42 prenylation. βPix is a GEF that increases CDC42 affinity for GTP. Pak2 is an effector of Cdc42, which regulates actin filament organization.
Suppression of VE-cadherin induces hemorrhage.

[3] = Spectrophotometer analysis of blood hemoglobin concentration (Drabkin's method); type: in vivo, C57BL/6 mice; conditions: 25 mg/kg or 100 mg/kg for 3 days, n=4; no statistical difference between groups
Method: Drabkin's reagent (Sigma Aldrich) was used for calorimetric quantification of hemoglobin concentration at 540 nm. C57BL/6 mice were randomly assigned to three groups (each n=4): Control, Low-dose ARM, and High-dose ARM. For ARM groups, three days of 25 mg/kg/day and 100 mg/kg/day ARM were administered for low and high dose, respectively. Blood from saphenous vein were collected at day 4 and tested for hemoglobin concentration using UV 3600 Shimadzu spectrophotometer. A standard curve was generated using a known standard solution of cyanmethemoglobin, and blood concentrations of Hb was compared to the standard curve.
To assess possible anemia effect from ARM treatment as some previous studies speculated, blood samples were tested for hemoglobin concentration after ARM treatment. Blood hemoglobin concentration was assessed using Drabkins' method. Spectrophotometer data was compared to a standard curve from standard cyanmethemoglobin concentrations. The control group received no drug. The Treatment Dose group received 3 days injection of low dose ARM (25 mg/kg), 4× Treatment Dose group received 3 days injection of high dose ARM (100 mg/kg).

CCM3 (Ccm3) mRNA = assay: qRT-PCR of CCM3 mRNA in atorvastatin-treated zebrafish larvae; type: in vivo, zebrafish (Danio rerio); conditions: 1 μmol/L atorvastatin plus 500 nmol/L drug, n=3
Method: qRT-PCR was used to assess relative expression of selected genes (an average of two biological trial and three technical replicates and each trial is a pool of 60 larvae/treatment), using β-actin as the housekeeping gene control. 3 dpf, Tg(Flk:GFP; Gata:dsRed) zebrafish larvae were used for RNA extraction and cDNA synthesis. Atorvastatin and drug treatment were performed as previously mentioned in drug screening. Total RNA was extracted from these larvae (a pool of 50-60 larvae/treatment) using the RNeasy extraction kit (Qiagen, Mississauga, ON, CAN) and treated with DNase. The concentration of total RNA was determined spectrophotometrically at 260/280 nm using a NanoDrop™ spectrophotometer. First-strand cDNA was synthesized from 1 μg of total RNA using random hexamer primers.
In each case, forward primer is shown on the top and reverse primer on the bottom.
PCR was carried out in a 20 μl total volume and included 1×PCR buffer, 1.25 mM MgCl2, 0.25 mM dNTP, 1 U Taq polymerase, 0.5 μmol/L forward, and reverse primers and 1 μl cDNA.

## CO[C@H]1O[C@@H]2O[C@@]3(C)CC[C@H]4[C@H](C)CC[C@@H]([C@H]1C)[C@@]24OO3 [Artemether]
[1]; 25 mg/kg i.p. with anti-β3 sera at P2, n=24, model control 77%
  ICH incidence: 47%
[1]; preliminary data, data not shown, vs controls
  Total volume of ICH (MRI): reduced
[2]; listed as ARM
  Rescue of hemorrhage induced by Cdh5 - exon2 morpholino: rescue was observed
[2]; listed as ARM (Sigma)
  Rescue of hemorrhage induced by Cdh5 - exon2 morpholino: Rescue effect
[3]
  Anemia (blood hemoglobin concentration): did not cause anemia
CCM3 (Ccm3) mRNA
  CCM3 transcription level (qRT-PCR): returned to normal
